The target of assay [1] is Carbonic anhydrase 2 (Homo sapiens, UniProt P00918). As to the kind of experiment: Esterase Activity Assay. Conditions: pH 7.4; 25 °C. How it is done:
(§1) CA activity was assayed according to method of Verpoorte et al. [Verpoorte et al., J. Biol. Chem., 242:4221-4229] described previously by Innocenti et al. [Innocenti et al., Bioorg. Med. Chem., 18:2159-2164; Innocenti et al., Bioorg. Med. Chem. Lett., 20:5050-5053] CA activity was determined by following thechange in absorbance at 348 nm of 4-nitrophenylacetate (NPA) to 4-nitrophenylate ion over a period of 3 min at 25°C using a spectrophotometer (CHEBIOS UV-VIS). The enzymatic reaction, in a total volume of 3.0 mL, contained 1.4 mL 0.05 M Tris-SO4 buffer (pH 7.4), 1 mL, 3 mM 4-nitrophenylacetate, 0.5 mL H2O and 0.1 mL enzyme solution. A reference measurement was obtained by preparing the same cuvette without enzyme solution. The inhibitory effects of ampicillin sulfate, ceftriaxone, ceftizoxime, ranitidine were examined. All compounds were tested in triplicate at each concentration used. Different inhibitor concentrations were used. HCA-I enzyme activities were measured for ceftriaxone (0.003-0.033 mM), ceftizoxime (0.017-0.096 mM), ranitidine (0.026-0.053 mM) at cuvette concentrations and HCAII enzyme activities were measured for ampicillin sulfate (0.038-0.095 mM), ceftriaxone (0.003-0.021 mM), ceftizoxime (0.026-0.061 mM) and ranitidine (0.032-0.058 mM) at cuvette concentrations.

Assay [2] concerns the target Carbonic anhydrase 1 (Homo sapiens, UniProt P00915). Description: Esterase Activity Assay. Conditions: pH 7.4; 25 °C. How it is done: as §1

Sequence of Carbonic anhydrase 1 (P00915 whole entry): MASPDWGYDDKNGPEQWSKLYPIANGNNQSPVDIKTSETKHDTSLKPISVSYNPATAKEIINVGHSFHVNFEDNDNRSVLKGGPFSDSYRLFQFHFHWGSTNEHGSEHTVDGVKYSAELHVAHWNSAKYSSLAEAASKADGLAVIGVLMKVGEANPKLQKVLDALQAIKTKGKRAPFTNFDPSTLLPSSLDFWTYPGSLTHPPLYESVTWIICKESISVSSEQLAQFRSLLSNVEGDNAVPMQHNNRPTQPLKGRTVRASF

Usually IC50 stands for the concentration at which inhibition is half-maximal. Read a low IC50 as greater potency in that assay. What is called Ki is a dissociation constant, usually derived from enzyme kinetics or from competition with a known ligand. With `CO/N=C(\C(=O)N[C@@H]1C(=O)N2C(C(=O)O)=C(CSc3nc(=O)c(=O)[nH]n3C)CS[C@H]12)c1csc(N)n1` [(6R,7R)-7-{2-(2-Amino-thiazol-4-yl)-2-[(Z)-methoxyimino]-acetylamino}-3-(2-methyl-5,6-dioxo-1,2,5,6-tetrahydro-[1,2,4]triazin-3-ylsulfanylmethyl)-8-oxo-5-thia-1-aza-bicyclo[4.2.0]oct-2-ene-2-carboxylic acid], the half-maximal inhibitory concentration (IC50) in assay [1] stood at 21 µM; in assay [2], 27.1 µM. The values for the inhibition constant (Ki) in assay [1] and in assay [2] were 15.8 µM and 28.5 µM, respectively.
For `CO/N=C(\C(=O)N[C@@H]1C(=O)N2C(C(=O)O)=CCS[C@H]12)c1csc(N)n1` [Ceftizoxime], in that order: 79.1 µM, 79.4 µM, 51.8 µM and 86.1 µM.
In assay [1], `CC1(C)S[C@@H]2[C@H](NC(=O)[C@H](N)c3ccccc3)C(=O)N2[C@H]1C(=O)O` [AY-6108] showed a half-inhibitory concentration (IC50) of 56.8 µM and a Ki of 83 µM.
With `CN/C(=C\[N+](=O)[O-])NCCSCc1ccc(CN(C)C)o1` [Ranitidine], in assay [1], half-maximal inhibition (IC50) required 66.1 µM and the Ki was determined as 29.7 µM. Besides, in assay [2], half-maximal inhibition (IC50) required 55.5 µM and the inhibitory constant (Ki) stood at 54.7 µM.

Values taken from BindingDB's records for doi:10.3109/14756366.2011.604852 (Erzincan University, 2012).
